# Values quoted from earlier work, collected in patent US20250000937A1 (ZHAOKE (HONG KONG) OPHTHALMOLOGY PHARMACEUTICAL LTD., priority 2021, published 2025).
# What was measured:
# DED [1] = conditions: OPUS-1, mean baseline ICSS of 1.84
# DED [2] = conditions: in vivo
# [3] = in vivo
smiles,measurement,setting,value
CS(=O)(=O)c1cccc(C[C@H](NC(=O)c2c(Cl)cc3c(c2Cl)CCN(C(=O)c2ccc4ccoc4c2)C3)C(=O)O)c1 [Lifitegrast],Proportion of patients with at least a 1-point improvement in ICSS from baseline to day 84,DED [1],22.2%
same,Time to show efficacy against DED signs and symptoms,DED [2],3 months
same,Patients with instillation site pain,[3],22%
